# Publication PMC8854719, “Phase 1A/1B dose-escalation and -expansion study to evaluate the safety, pharmacokinetics, food effects and antitumor activity of pamiparib in advanced solid tumours” (British Journal of Cancer, 2021)
# Values joined by “and” are separate entries in the source; they are usually repeats but may differ in a detail not shown here. Identical values can stand only once.
# Tests used:
# [1] = test system: epithelial ovarian cancer (EOC); assay: Tumour response and PFS per RECIST v1.1, EOC efficacy-evaluable population; format: in vivo, human
# Protocol: (§1) Tumour response was evaluated by RECIST v1.1. For patients with ovarian cancer, tumour response was assessed per RECIST v1.1 and by Gynecologic Cancer Intergroup (GCIG) CA-125 criteria. Tumour response for patients with prostate cancer was assessed by Prostate Cancer Clinical Trials Working Group 2 (PCWG2) criteria. Objective response rate (ORR) was defined as the proportion of patients achieving a confirmed complete response (CR) or partial response (PR) on study treatment. Blood tumour antigens (e.g., carcinoembryonic antigen for colorectal cancer, CA-125 for ovarian cancer and prostate-specific antigen [PSA] for mCRPC) were assessed during screening, every 6 weeks after the first pamiparib dose in the first 12 months, and every 9 weeks thereafter.
# Analyses of ORR (95% confidence interval [CI]) by investigator assessment were performed using predefined subgroups of the EOC population, including age group (<65 years versus ≥65 years), baseline ECOG performance status (0 versus 1), solid tumour stage (Stage III versus IV), BRCA/HRD status (germline BRCA mutation versus wild-type or unknown; germline or somatic BRCA mutation versus wild-type or unknown; HRD-positive versus negative or unknown), and platinum response status (platinum-sensitive versus platinum-resistant versus platinum-refractory).
# (§2) The safety population comprised all patients in the dose-escalation and dose-expansion phases who received at least one dose of pamiparib (Supplementary Table S2). Patients in the safety analysis set for whom valid pamiparib PK parameters were estimated and for whom evaluable PD results were available represented the PK population and the PD population, respectively. The efficacy-evaluable population included patients in the safety analysis set who had at least one evaluable postbaseline tumour assessment or those who discontinued due to clinical disease progression or early death before tumour assessment could be performed. The EOC efficacy-evaluable population was a subset of the overall efficacy-evaluable population that included patients with EOC from both the dose-escalation and dose-expansion phases. Patients in the dose-expansion phase without measurable disease at baseline per RECIST v1.1 were excluded from the efficacy-evaluable population.
# Descriptive statistics were used to summarise all study data (see Supplemental Appendix). Progression-free survival (PFS) and event-free rates were estimated using the Kaplan–Meier method along with the corresponding 95% CI. Pharmacokinetic parameters were derived using standard non-compartmental methods with Phoenix WinNonlin Version 6.4 or higher (Pharsight Corp., Mountain View, California).
# [2] = test system: epithelial ovarian cancer (EOC); assay: GCIG CA-125 response; format: in vivo, human; conditions: CA-125–evaluable population (n=12)
# Protocol: as §1
# as §2, with “The EOC efficacy-evaluable population was a subset of the overall efficacy-evaluable population that included patients with EOC from both the dose-escalation and dose-expansion phases. Patients in the dose-expansion phase without measurable disease at baseline per RECIST v1.1 were excluded from the efficacy-evaluable population.” left out
# [3] = Phase 1 portion of NCT03333915, patients in China; cited from earlier work
# [4] = test system: BCRP (breast cancer resistance protein); parameters: method as in PMID 32652442; conditions: cited from earlier work
# [5] = test system: metastatic castration-resistant prostate cancer (mCRPC); assay: PCWG2 response and PSA progression; format: in vivo, human
# Protocol: as §1, §2
# [6] = test system: BRCA1-mutant breast cancer xenograft model; parameters: method as in PMID 32652442; conditions: cited from earlier work
# P-glycoprotein = test system: P-glycoprotein; parameters: method as in PMID 32652442; conditions: cited from earlier work
# [7] = EOC, Total QD Dosage Group (n=9)
# [8] = Total BID dosage group, EOC efficacy-evaluable (n = 51)
compound,measurement,setting,value
C[C@]12CCCN1CC1=NNC(=O)c3cc(F)cc4[nH]c2c1c34 [pamiparib],Best overall response: Not evaluable,"[1]; EOC, Total BID and QD (N=60)",2 (3.3) n (%)
same,Best overall response: Partial response,"[1]; EOC, Total BID and QD (N=60)",19 (31.7) n (%)
same,Best overall response: Progressive disease,"[1]; EOC, Total BID and QD (N=60)",2 (3.3) n (%)
same,Best overall response: Stable disease,"[1]; EOC, Total BID and QD (N=60)",30 (50.0) n (%)
same,Clinical benefit rate,"[1]; EOC, Total BID and QD (N=60)",51.7 (38.39-64.77) % (95% CI)
same,Disease control rate,"[1]; EOC, Total BID and QD (N=60)",88.3 (77.43-95.18) % (95% CI)
same,Objective response rate,"[1]; EOC, Total BID and QD (N=60)",38.3 (26.07-51.79) % (95% CI)
same,Best overall response: Complete response,[1]; [7],0 (0) n (%)
same,Best overall response: Not assessed,[1]; [7],0 (0) n (%)
same,Best overall response: Not evaluable,[1]; [7],1 (11.1) n (%)
same,Best overall response: Partial response,[1]; [7],2 (22.2) n (%)
same,Best overall response: Progressive disease,[1]; [7],0 (0) n (%)
same,Best overall response: Stable disease,[1]; [7],6 (66.7) n (%)
same,Clinical benefit rate,[1]; [7],33.3 (7.49-70.07) % (95% CI)
same,Disease control rate,[1]; [7],88.9 (51.75-99.72) % (95% CI)
same,"ORR, subgroup Age <65",[1]; [7],20.0 (0.51-71.64) [5/9] % (95% CI)
same,"ORR, subgroup Age ≥65",[1]; [7],25.0 (0.63-80.59) [4/9] % (95% CI)
same,"ORR, subgroup Baseline ECOG performance status 0",[1]; [7],0.0 (0.00-97.50) [1/9] % (95% CI)
same,"ORR, subgroup Baseline ECOG performance status ≥1",[1]; [7],25.0 (3.19-65.09) [8/9] % (95% CI)
same,"ORR, subgroup Germline BRCA status Mutant",[1]; [7],33.3 (0.84-90.57) [3/9] % (95% CI)
same,"ORR, subgroup Germline BRCA status Wild-type/Unknown",[1]; [7],16.7 (0.42-64.12) [6/9] % (95% CI)
same,"ORR, subgroup Germline or somatic BRCA status Mutant",[1]; [7],33.3 (0.84-90.57) [3/9] % (95% CI)
same,"ORR, subgroup Germline or somatic BRCA status Wild-type/Unknown",[1]; [7],16.7 (0.42-64.12) [6/9] % (95% CI)
same,"ORR, subgroup HRD status Negative/Unknown",[1]; [7],20.0 (0.51-71.64) [5/9] % (95% CI)
same,"ORR, subgroup HRD status Positive",[1]; [7],25.0 (0.63-80.59) [4/9] % (95% CI)
same,"ORR, subgroup Platinum-sensitivity status Sensitive",[1]; [7],66.7 (9.43-99.16) [3/9] % (95% CI)
same,"ORR, subgroup Solid tumor stage 3",[1]; [7],0.0 (0.00-52.18) [5/9] % (95% CI)
same,"ORR, subgroup Solid tumor stage 4",[1]; [7],50.0 (1.26-98.74) [2/9] % (95% CI)
same,Objective response rate,[1]; [7],22.2 (2.81-60.01) % (95% CI)
same,PFS censored: No disease progression or death,[1]; [7],2 (22.2) n (%)
same,PFS censored: No postbaseline assessment,[1]; [7],0 (0) n (%)
same,PFS censored: ≥2 consecutive missed assessments,[1]; [7],0 (0) n (%)
same,PFS events: Death,[1]; [7],3 (33.3) n (%)
same,PFS events: Disease progression,[1]; [7],4 (44.4) n (%)
same,PFS: Censored,[1]; [7],2 (22.2) n (%)
same,PFS: Events,[1]; [7],7 (77.8) n (%)
same,"Progression-Free Survival, Median",[1]; [7],4.9 (1.84-NE) months (95% CI)
same,Best overall response: Complete response,[1]; [8],4 (7.8) n (%)
same,Best overall response: Not assessed,[1]; [8],3 (5.9) n (%)
same,Best overall response: Not evaluable,[1]; [8],1 (2.0) n (%)
same,Best overall response: Partial response,[1]; [8],17 (33.3) n (%)
same,Best overall response: Progressive disease,[1]; [8],2 (3.9) n (%)
same,Best overall response: Stable disease,[1]; [8],24 (47.1) n (%)
same,Clinical benefit rate,[1]; [8],54.9 (40.3–68.9) % (95% CI) and 54.9 (40.34-68.87) % (95% CI)
same,Disease control rate,[1]; [8],88.2 (76.1–95.6) % (95% CI) and 88.2 (76.13-95.56) % (95% CI)
same,Objective response rate,[1]; [8],41.2 (27.6–55.8) % (95% CI) and 41.2 (27.58-55.83) % (95% CI)
same,GCIG CA-125 response rate,[2],83.3%
same,Median time to CA-125 response,[2],1.38 months
same,"Anaemia, Grade ≥3",[3],27%
same,Substrate of BCRP,[4],not a substrate
same,Median time to PSA progression,[5]; PSA-evaluable population (n=6),4.2 months
same,PSA progression rate,[5]; PSA-evaluable population (n=6),33.3%
same,Responders per PCWG2 criteria (in words),"[5]; mCRPC, phase 1B Part A",No patients with mCRPC in phase 1B Part A were considered responders
same,Efficacy (tumour regression) compared with olaparib,[6],16 fold
same,Substrate of P-glycoprotein,P-glycoprotein,not a substrate
